The values that follow come from patent US20240376076A1, “INHIBITORS TARGETING UBIQUITIN SPECIFIC PROTEASE 7 (USP7)” (Dana-Farber Cancer Institute, Inc., priority 2021, published 2024).

The target of data set [1] is T1, USP7, Active human recombinant protein (Homo sapiens, UniProt Q93009).
T1 construct: purchased CP Lot; 20200225001
Kind of data set: USP7 assay (Ubiquitin-Rhodamine 110 enzymatic assay). The following applies: read-out: IC50. The format is biochemical. Here is the method: Enzymatic Assays with Exemplary USP7 Irreversible Inhibitors
(§1) ND refers to not disclosed.
USP7, Active human recombinant protein (CP, Lot. 20200225001), Ubiquitin-Rhodamine 110 (Rh110) (BostonBiochem, Cat. No. U-555), DMSO (Sigma, Cat. N34869), DTT (Sangon Biotech, Cat. No. A620058-0005), […] Tris pH 8.0 (Sigma, Cat. No. T2694-1L), Tween-20 (Sigma, Cat. No. P2287-100ML), EDTA (Invitrogen, Cat. No. 15575020, BSA (Sigma, Cat. No. B2064-100G), 384-well assay plate (Corning, Cat. No. 3573), Echo Qualified 384-Well Polypropylene Microplate 2.0, Clear, Flat Bottom (LABCYTE, Cat. No. 001-14555).
Dilute the compounds to 400× of the final desired highest inhibitor concentration in reaction by 100% DMSO. For all compounds, transfer the compounds to one well in a 384-well Echo plate and serially dilute the compound by 3-fold dilution of 100% DMSO in the next well and so forth for a total of 10 concentrations by Precision. Add 30 μL of 100% DMSO to two empty wells for no compound control and no enzyme control in the same 384-well Echo plate. Make the plate as a source plate.
For USP7 assay, transfer 50 nL of each well from the source plate to a 384-well assay plate (OptiPlate TM-384 F black assay plates) by Echo 550 Liquid Handler.
Added appropriate amount of USP7 in 1× assay Buffer to prepare 2× enzyme solution (USP7 final concentration: 0.05 nM). Added appropriate amount of Ubiquitin-Rhodamine 110 in 1× assay Buffer to prepare 2× substrate solution (Ubiquitin-Rhodamine 110 final concentration: 190 nM). Added 10 μL of 2× enzyme solution to each reaction well of the 384-well assay plate, except for control wells without enzyme (add 10 μL of 1× Assay Buffer instead as for low control). […] Transferred 2× substrate solution to the assay plate. Added 10 μL of 2× substrate solution to each well of the 384-well assay plate to start reaction. Centrifuged at 1000 rpm for 1 min. Read the plate kinetically on SpectraMax Paradigm for 20 min with excitation at 485 nm and emission at 535 nm. Copied raw data (slope) from Reader to obtain inhibition values in Excel using equation (1): […]
Max signal was obtained from the action of Enzyme and Substrate. Min signal was obtained from the Substrate only. To fit the data in XLFit excel add-in version 5.4.0.8 to obtain IC50 values used equation (2): […]
Y is % inhibition and X is compound concentration.

The nature of data set [2]: mouse liver microsomal stability (Microsome Assay Protocol). The format is in vitro ADME. The following applies: pH 7.4; mouse liver microsomes, NADPH, 37° C.; read-out: MLM t1/2, min. Here is the method:
as §1
• 1. Buffer A: 1.0 L of 0.1 M monobasic Potassium Phosphate buffer containing 1.0 mM EDTA Buffer B: 1.0 L of 0.1 M Dibasic Potassium Phosphate buffer containing 1.0 mM EDTA • Buffer C: 0.1 M Potassium Phosphate buffer, 1.0 mM EDTA, pH 7.4 by titrating 700 mL of buffer B with buffer A while monitoring with a pH meter. • 2. Reference compound (Ketanserin) and test compounds spiking solution: • 500 μM spiking solution: added 10 μL of 10 mM DMSO stock solution into 190 μL ACN. • 1.5 μM spiking solution in microsomes (0.75 mg/mL): added 1.5 μL of 500 μM spiking solution and 18.75 μL of 20 mg/mL liver microsomes into 479.75 μL of Buffer C on ice. • 3. Prepared NADPH stock solution (6 mM) by dissolving NADPH into buffer C. Dispensed 30 μL of 1.5 μM spiking solution containing 0.75 mg/mL microsomes solution to the assay plates designated for different time points (0-, 5-, 15-, 30-, 45-min) on ice. For 0-min, added 135 μL of ACN containing IS to the wells of 0-min plate and then added 15 μL of NADPH stock solution (6 mM). Pre-incubated all other plates at 37° C. for 5 minutes. Added 15 μL of NADPH stock solution (6 mM) to the plates to start the reaction and timing. At 5-min, 15-min, 30-min, and 45-min, added 135 μL of ACN containing IS to the wells of corresponding plates, respectively, to stop the reaction. After quenching, shook the plates at the vibrator (IKA, MTS 2/4) for 10 min (600 rpm/min) and then centrifuged at 5594 g for 15 min (Thermo Multifuge×3R). Transferred 50 μL of the supernatant from each well into a 96-well sample plate containing 50 μL of ultra pure water (Millipore, ZMQS50F01) for LC/MS analysis.
On the technique in general: Liver microsomes are vesicles of endoplasmic reticulum, rich in cytochrome P450 enzymes.

Molecules are shown by their SMILES.

T1 sequence (Q93009 whole entry): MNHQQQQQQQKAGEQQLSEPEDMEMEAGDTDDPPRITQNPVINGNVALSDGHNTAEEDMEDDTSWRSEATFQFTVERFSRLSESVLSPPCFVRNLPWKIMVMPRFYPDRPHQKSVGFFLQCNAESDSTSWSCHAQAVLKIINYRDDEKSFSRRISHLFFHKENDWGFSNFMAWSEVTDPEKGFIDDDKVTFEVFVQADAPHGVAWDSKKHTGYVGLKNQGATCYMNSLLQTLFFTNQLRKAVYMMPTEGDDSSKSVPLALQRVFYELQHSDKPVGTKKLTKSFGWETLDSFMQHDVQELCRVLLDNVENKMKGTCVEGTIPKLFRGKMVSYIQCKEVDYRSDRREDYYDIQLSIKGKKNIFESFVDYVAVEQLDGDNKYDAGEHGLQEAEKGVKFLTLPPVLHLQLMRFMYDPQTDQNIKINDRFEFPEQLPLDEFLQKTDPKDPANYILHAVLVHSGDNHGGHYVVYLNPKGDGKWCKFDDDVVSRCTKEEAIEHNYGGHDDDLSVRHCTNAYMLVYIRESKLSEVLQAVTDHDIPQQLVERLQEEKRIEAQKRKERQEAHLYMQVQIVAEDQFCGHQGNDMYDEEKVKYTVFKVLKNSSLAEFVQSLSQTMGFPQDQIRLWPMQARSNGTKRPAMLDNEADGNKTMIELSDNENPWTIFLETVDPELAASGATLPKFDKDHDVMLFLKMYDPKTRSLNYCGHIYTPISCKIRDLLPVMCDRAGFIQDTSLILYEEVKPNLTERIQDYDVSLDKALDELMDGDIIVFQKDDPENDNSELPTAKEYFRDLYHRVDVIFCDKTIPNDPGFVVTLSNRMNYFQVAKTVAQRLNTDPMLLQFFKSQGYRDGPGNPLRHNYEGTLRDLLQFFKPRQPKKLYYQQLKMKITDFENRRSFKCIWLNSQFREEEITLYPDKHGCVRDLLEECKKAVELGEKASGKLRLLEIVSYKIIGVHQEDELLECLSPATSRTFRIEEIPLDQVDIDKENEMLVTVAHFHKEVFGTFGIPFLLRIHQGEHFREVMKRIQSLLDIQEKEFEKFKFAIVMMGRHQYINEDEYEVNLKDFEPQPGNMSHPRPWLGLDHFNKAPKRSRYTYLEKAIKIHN

With `CN(C)CCCOc1ccc2c(=O)n(CC3(O)CCN(C(=O)[C@H](CCCNC(=O)c4ccc5c(Cl)c(C(=O)N(C)C)cnc5c4)Cc4ccccc4)CC3)cnc2c1`, the half-inhibitory concentration (IC50) (usually the concentration at which inhibition is half-maximal) in data set [1] is 0.1 to 1 µM. For the same compound, the half-life at 1 µM in data set [2] stood at 33.8 min.
On to `CN1CCN(CCC(=O)Nc2ccc3c(=O)n(CC4(O)CCN(C(=O)C(CCCNC(=O)c5ccc6c(Cl)cc(-c7ccc(F)cc7)nc6c5)Cc5ccccc5)CC4)cnc3c2)CC1` (centres unmarked), for which the half-maximal inhibitory concentration (IC50) in data set [1] was 0.1 to 1 µM. Moreover, the half-life at 1 µM in data set [2] amounted to 22.7 min.
In the same order, the values of `CN(C)CCC(=O)Nc1ccc2c(=O)n(CC3(O)CCN(C(=O)C(Cc4ccccc4)c4cccc(NC(=O)c5ccc6c(Cl)ccnc6c5)c4)CC3)cnc2c1` (centres unmarked) [Compound 72] are 0.1 to 1 µM and 29.5 min.
The matching figures for `O=C(NCCCC(Cc1ccccc1)C(=O)N1CCC(O)(Cn2cnc(NCCN3CCCC3)cc2=O)CC1)c1ccc2c(Cl)ccnc2c1` (centres unmarked) [Compound 11, N-(4-benzyl-5-(4-hydroxy-4-((6-oxo-4-(2-(pyrrolidin-1-yl)ethylamino)pyrimidin-1(6H)-yl)methyl)piperidin-1-yl)-5-oxopentyl)-4-chloroquinoline-7-carboxamide]: 0.02 to 0.1 µM and 12.1 min.
In the same order, the values of `CN(C)CCCNc1cc2ncn(CC3(O)CCN(C(=O)[C@@H](CCCNC(=O)c4ccc5c(Cl)cc(C6CC6)nc5c4)Cc4ccccc4)CC3)c(=O)c2cc1F` are below 0.02 µM and 18.6 min.
For `CN(C)CCCOc1ccc2c(=O)n(CC3(O)CCN(C(=O)C(CCCNC(=O)c4ccc5c(Cl)c6c(nc5c4)CN(C)C6=O)Cc4ccccc4)CC3)cnc2c1` (centres unmarked), the concentration for half-maximal inhibition (IC50) in data set [1] is below 0.02 µM. For the same compound, the half-life at 1 µM in data set [2] came out at 11.3 min.
On to `CN(C)CCC(=O)Nc1ccc2c(=O)n(CC3(O)CCN(C(=O)C(CCCNC(=O)c4ccc5c(Cl)ccnc5n4)Cc4ccccc4)CC3)cnc2c1` (centres unmarked) [Compound 47, N-(4-benzyl-5-(4-((7-(3-(dimethylamino)propanamido)-4-oxoquinazolin-3(4H)-yl)methyl)-4-hydroxypiperidin-1-yl)-5-oxopentyl)-5-chloro-1,8-naphthyridine-2-carboxamide], for which the half-inhibitory concentration (IC50) in data set [1] was 0.02 to 0.1 µM. In addition, the half-life at 1 µM in data set [2] was found to be 12.4 min.
Turning to `CN(C)CCCOc1ccc2c(=O)n(CC3(O)CCN(C(=O)[C@H](CCCNC(=O)c4ccc5c(Cl)c(C6CC6)cnc5c4)Cc4ccccc4)CC3)cnc2c1`, the half-inhibitory concentration (IC50) in data set [1] was below 0.02 µM. The half-life at 1 µM in data set [2] amounted to 31.9 min.
In the same order, the values of `CN(C)CCCOc1ccc2c(=O)n(CC3(O)CCN(C(=O)[C@H](CCCNC(=O)c4cnc5c(Cl)ccnc5c4)Cc4ccccc4)CC3)cnc2c1` are 0.1 to 1 µM and 44 min.
In the same order, the values of `CN(C)CCCOc1ccc2c(=O)n(CC3(O)CCN(C(=O)C(CCCNC(=O)c4ccc5c(Cl)c(C(=O)NC6CC6)cnc5c4)Cn4ccc(F)n4)CC3)cnc2c1` (centres unmarked) are below 0.02 µM and 152 min.
Regarding `Nc1ccc(-n2ncc3c(=O)n(CC4(O)CCN(C(=O)C(CCCNC(=O)c5ccc6c(Cl)ccnc6c5)Cc5ccccc5)CC4)cnc32)cc1` (centres unmarked) [Compound 7, N-(5-(4-((1-(4-aminophenyl)-4-oxo-1,4-dihydro-5H-pyrazolo[3,4-d]pyrimidin-5-yl)methyl)-4-hydroxypiperidin-1-yl)-4-benzyl-5-oxopentyl)-4-chloroquinoline-7-carboxamide], the concentration for half-maximal inhibition (IC50) in data set [1] was below 0.02 µM. The half-life at 1 µM in data set [2] was 4.3 min.
As to `O=C(NCCCC(Cc1ccccc1)C(=O)N1CCC(O)(Cn2cnc3c(cnn3-c3ccc(F)cc3)c2=O)CC1)c1ccc2c(Cl)ccnc2c1` (centres unmarked) [Compound 6, N-(4-benzyl-5-(4-((1-(4-fluorophenyl)-4-oxo-1,4-dihydro-5H-pyrazolo[3,4-d]pyrimidin-5-yl)methyl)-4-hydroxypiperidin-1-yl)-5-oxopentyl)-4-chloroquinoline-7-carboxamide], the IC50 in data set [1] is 0.02 to 0.1 µM. In data set [2], the half-life at 1 µM turned out to be 1 min.
As for `CN(C)CC(=O)Nc1ccc2c(=O)n(CC3(O)CCN(C(=O)[C@H]4CC[C@H](NC(=O)c5ccc6c(Cl)ccnc6c5)CC4)CC3)cnc2c1` [Compound 35, 4-chloro-N-((1R,4R)-4-(4-((7-(2-(dimethylamino)acetamido)-4-oxoquinazolin-3(4H)-yl)methyl)-4-hydroxypiperidine-1-carbonyl)cyclohexyl)quinoline-7-carboxamide], the IC50 in data set [1] is above 1 µM.
In the case of `O=C(CCn1cccn1)Nc1ccc2c(=O)n(CC3(O)CCN(C(=O)C(CCCNC(=O)c4ccc5c(Cl)ccnc5c4)Cc4ccccc4)CC3)cnc2c1` (centres unmarked) [Compound 64, N-(5-(4-((7-(3-(JH-pyrazol-1-yl)propanamido)-4-oxoquinazolin-3(4H)-yl)methyl)-4-hydroxypiperidin-1-yl)-4-benzyl-5-oxopentyl)-4-chloroquinoline-7-carboxamide], the IC50 in data set [1] fell in the range of 0.1 to 1 µM.
Regarding `CN(C)CCC(=O)Nc1ccc2c(=O)n(CC3(O)CCN(C(=O)C(CCCNC(=O)c4ccc5c(Cl)ccnc5c4)Cc4cccnc4)CC3)cnc2c1` (centres unmarked) [Compound 82], in data set [1], the 50% inhibitory concentration (IC50) fell in the range of 0.1 to 1 µM.
As to `CN(C)CCCOc1ccc2c(=O)n(CC3(O)CCN(C(=O)[C@H](CCCNC(=O)c4ccc5c(Cl)c(C(F)F)cnc5c4)Cc4ccccc4)CC3)cnc2c1` [Compound 130], the IC50 in data set [1] is below 0.02 µM.
On the same count and under the same terms, the value for `O=C(NCCC[C@H](Cc1ccccc1)C(=O)N1CCC(O)(Cn2cnc(NCCN3CCCC3)cc2=O)CC1)c1ccc2c(Cl)ccnc2c1` [Compound 12, N-(4-benzyl-5-(4-hydroxy-4-((6-oxo-4-(2-(pyrrolidin-1-yl)ethylamino)pyrimidin-1(6H)-yl)methyl)piperidin-1-yl)-5-oxopentyl)-4-chloroquinoline-7-carboxamide] was above 1 µM; that for `CN(C)CCCOc1ccc2c(=O)n(CC3(O)CCN(C(=O)C(Cc4ccccc4)N(C)CCNC(=O)c4ccc5c(Cl)cc(C6CC6)nc5c4)CC3)cnc2c1` (centres unmarked) was 0.1 to 1 µM; that for `CN(C)CCOc1cc(F)c2c(=O)n(CC3(O)CCN(C(=O)[C@H](CCCNC(=O)c4ccc5c(Cl)cc(C6CC6)nc5c4)Cc4ccccc4)CC3)cnc2c1` [Compound 118] was 0.1 to 1 µM.
Turning to `CN1CCN(CCn2ncc3ncn(CC4(O)CCN(C(=O)C(CCCNC(=O)c5ccc6c(Cl)ccnc6c5)Cc5ccccc5)CC4)c(=O)c32)CC1` (centres unmarked) [Compound 28], in data set [1], the IC50 is above 1 µM.
Take `O=C(CCN1CCNCC1)Nc1ccn2c(=O)c(CN3CCN(C(=O)[C@@H]4CCN(CCNC(=O)c5ccc6c(Cl)ccnc6c5)C[C@H]4c4ccccc4)CC3)cnc2c1` [Compound 100]: the 50% inhibitory concentration (IC50) in data set [1] was above 1 µM.
Take `CN(C)CCC(=O)Nc1ccc2c(=O)n(CC3(O)CCN(C(=O)C(CCCNc4cccc(-c5cc(Cl)ccn5)c4)Cc4ccccc4)CC3)cnc2c1` (centres unmarked) [Compound 46]: the IC50 in data set [1] was above 1 µM.
As for `O=C(NCCN1CC[C@@H](C(=O)N2CCC(O)(Cn3cnc4cc(-c5nc(CN6CCNCC6)co5)ccc4c3=O)CC2)[C@H](c2ccccc2)C1)c1ccc2c(Cl)ccnc2c1` [Compound 144], the half-inhibitory concentration (IC50) in data set [1] fell in the range of 0.02 to 0.1 µM.
